According to patent publication US4977144A, “Imidazo[4,5-b]pyridine derivatives as cardiovascular agents” (Ciba-Geigy Corporation, priority 1989, dated 1990):

Columns and labels:
[1] = molecular target: T1, adenosine-2 (A-2) receptor (Rattus norvegicus, UniProt P30543); assay: adenosine-2 (A-2) receptor binding: inhibition of specific binding of 3H-NECA in rat striatal membrane preparations; design: species or system male Sprague-Dawley rats; conditions: for IC50: displacement of 4 nM 3H-NECA in the presence of 50 nM cyclopentyladenosine, rat striatal membranes, read-out: IC50 in the in vitro adenosine-2 receptor binding assay
T1 construct: striatal membrane preparations from corpus striatum of male Sprague-Dawley rats; from tissue; host or cells: corpus striatum of male Sprague-Dawley rats (membrane preparation)
T1 sequence (P30543 whole entry): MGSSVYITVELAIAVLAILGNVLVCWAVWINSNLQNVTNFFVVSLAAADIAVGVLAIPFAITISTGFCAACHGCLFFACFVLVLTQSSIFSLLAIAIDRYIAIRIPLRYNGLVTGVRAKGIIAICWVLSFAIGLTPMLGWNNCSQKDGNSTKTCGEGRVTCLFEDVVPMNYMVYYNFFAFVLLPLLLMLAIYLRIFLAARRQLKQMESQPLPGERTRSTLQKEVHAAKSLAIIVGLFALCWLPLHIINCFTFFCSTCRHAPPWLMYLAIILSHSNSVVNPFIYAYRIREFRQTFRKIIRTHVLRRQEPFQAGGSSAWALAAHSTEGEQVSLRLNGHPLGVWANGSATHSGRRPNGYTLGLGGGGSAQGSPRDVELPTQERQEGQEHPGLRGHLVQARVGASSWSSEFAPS

[2] = system: spontaneous hypertensive rat; assay: blood pressure lowering effect in the spontaneous hypertensive rat on oral administration; format: in vivo; conditions: at a dose of about 10 mg/Kg p.o.
Experimental: Indicative of in vivo adenosine receptor agonist activity, the hypotensive activity of the compounds of the invention can be measured in normotensive or spontaneous hypertensive rats on intravenous or oral administration.
The blood pressure lowering effect in the spontaneous hypertensive rat is determined on oral administration as known in the art.

| Structure (SMILES) | greater potency at the A-2 receptor than at the A-1 receptor ([1]; A-2 binding versus A-1 binding) | IC50 [1] [nM] | lowers blood pressure in the spontaneous hypertensive rat model [2] |
| --- | --- | --- | --- |
| Nc1cc(NCCC2CCCCC2)nc2c1ncn2[C@@H]1O[C@H](CO)[C@@H](O)[C@H]1O [Example 1, 7-amino-3-β-D-ribofuranosyl-N-(2-cyclohexylethyl)-3H-imidazo[4,5-b] pyridin-5-amine] | more than 100 fold | ~100 | effectively lowers blood pressure |
| COc1ccc(CCNc2cc(N)c3ncn([C@@H]4O[C@H](CO)[C@@H](O)[C@H]4O)c3n2)cc1 [Example 15(1)] | – | ~70 | – |
